Data as given in DBAASP.
In brackets after ≈: the same amount, converted by molar mass. Several values for one entry are separate records, joined by “and”; a condition that tells them apart may be missing. Equal entries are not always repeated.

Key:
Assay in all cases: ≥ marks a high value that may be exact or a test limit, other limits are often not marked, values filed in µg/mL are converted to µM
[1] = system: Cryptococcus neoformans var. grubii H99
[2] = system: Staphylococcus aureus ATCC 29213
[3] = system: Escherichia coli 5509
[4] = system: Pseudomonas aeruginosa ATCC 9027
[5] = system: Pseudomonas aeruginosa ATCC 27853
[6] = system: Escherichia coli 170
[7] = system: Staphylococcus aureus 01-001
[8] = system: Klebsiella pneumoniae 01-252
[9] = system: Staphylococcus aureus 06-051
[10] = system: Escherichia coli 09-240
[11] = system: Candida parapsilosis ATCC 22019
[12] = system: Candida albicans SC5314
[13] = system: Pseudomonas aeruginosa 3599
[14] = system: Acinetobacter baumannii 5821
[15] = system: Candida tropicalis ATCC 750
[16] = system: Escherichia coli ATCC 25922
[17] = system: Enterobacter cloacae 06-267
[18] = system: Candida glabrata ATCC 90030
[19] = system: Cryptococcus neoformans var. neoformans B3501
[20] = system: Enterobacter cloacae 14-262
[21] = system: Pseudomonas aeruginosa 5106
[22] = system: Klebsiella pneumoniae 01-239
[23] = system: Staphylococcus aureus ATCC 25923
[24] = system: Escherichia coli 09-280
[25] = system: Escherichia coli ATCC 25726
[26] = system: Acinetobacter baumannii I NM8
[27] = system: Klebsiella pneumoniae ATCC 700603
[28] = system: Candida albicans ATCC 90028
[29] = system: Escherichia coli ML-35p
[30] = system: Pseudomonas aeruginosa 08031014
[31] = system: Candida albicans ATCC 20032
[32] = system: Escherichia coli
[33] = system: Bacillus subtilis ATCC 6633
[34] = system: Pseudomonas aeruginosa PAO1
[35] = system: Staphylococcus aureus ATCC 43300
[36] = system: Bacillus anthracis
[37] = system: Staphylococcus aureus
[38] = system: Bacillus cereus
[39] = system: Pseudomonas aeruginosa AB93066
[40] = system: Staphylococcus aureus P1369
[41] = system: Escherichia coli AB94012
[42] = system: Staphylococcus aureus AB94004
[43] = system: Bacillus subtilis AB91021
[44] = system: Staphylococcus epidermidis P1389
[45] = system: Escherichia coli ATCC 35218
[46] = system: Micrococcus luteus AB93113
[47] = system: Enterococcus faecalis ATCC 29212
[48] = system: Candida albicans AY93025
[49] = system: Acinetobacter baumannii
[50] = system: Acinetobacter baumannii ATCC 19606
[51] = system: Bacillus thuringiensis AB92037
[52] = system: Staphylococcus aureus P1386
[53] = system: Staphylococcus aureus P1374

In the case of `CC[C@H](C)[C@H](N)C(=O)N[C@@H](CC(C)C)C(=O)N[C@@H](CO)C(=O)N[C@@H](C)C(=O)N[C@H](C(=O)N[C@@H](Cc1c[nH]c2ccccc12)C(=O)N[C@@H](CO)C(=O)NCC(=O)N[C@H](C(=O)N[C@@H](CCCCN)C(=O)N[C@@H](CO)C(=O)N[C@@H](CC(C)C)C(=O)N[C@@H](Cc1ccccc1)C(N)=O)[C@@H](C)CC)[C@@H](C)CC` [ILSAIWSGIKSLF], the MIC [1] is reported as 25 µM (≈ 35.8 µg/mL), the MIC [2] is reported as 8 µM (≈ 11.5 µg/mL) and the MIC [3] is reported as ≥ 32 µM. The MIC [4] was 6 µM (≈ 8.6 µg/mL), the MIC [5] was > 32 µM and the MIC [6] was ≥ 32 µM. For the same compound, the MIC [7] was 4 µM (≈ 5.74 µg/mL), the MIC [8] was ≥ 32 µM and the MIC [9] was 4 µM (≈ 5.74 µg/mL). For the same compound, the MIC [10] was 30 µM (≈ 43 µg/mL), the MIC [11] was ≥ 400 µM and the MIC [12] was 25 µM (≈ 35.8 µg/mL). The MIC [13] was ≥ 32 µM, the MIC [14] was 10 µM (≈ 14.3 µg/mL) and the MIC [15] was 25 µM (≈ 35.8 µg/mL). The MIC [16] was 15 µM (≈ 21.5 µg/mL), the MIC [17] was ≥ 32 µM and the MIC [18] was ≥ 400 µM. For the same compound, the MIC [19] was 12.5 µM (≈ 17.9 µg/mL), the MIC [20] was ≥ 32 µM and the MIC [21] was ≥ 32 µM. For the same compound, the MIC [22] was 30 µM (≈ 43 µg/mL), the MIC [23] was 10 µM (≈ 14.3 µg/mL) and the MIC [24] was ≥ 32 µM.

For `CC[C@H](C)[C@H](NC(=O)[C@H](CC(C)C)NC(=O)[C@H](Cc1cnc[nH]1)NC(=O)[C@@H]1CCCN1C(=O)[C@H](CC(C)C)NC(=O)[C@@H](NC(=O)[C@H](CCCCN)NC(=O)[C@H](C)NC(=O)[C@@H](NC(=O)CNC(=O)[C@H](CCCCN)NC(=O)[C@H](CC(C)C)NC(=O)CNC(=O)[C@H](CC(C)C)NC(=O)[C@H](CCCCN)NC(=O)[C@H](CC(C)C)NC(=O)[C@H](CC(C)C)NC(=O)[C@@H]1CCCN1C(=O)CNC(=O)[C@H](CC(C)C)NC(=O)[C@H](Cc1ccccc1)NC(=O)CN)C(C)C)C(C)C)C(=O)N1CCC[C@H]1C(=O)N[C@@H](CO)C(=O)N[C@@H](CCCN=C(N)N)C(=O)N[C@@H](CCC(N)=O)C(=O)N[C@@H](CCC(N)=O)C(=O)O` [GFLGPLLKLGLKGVAKVLPHLIPSRQQ], the MIC [25] was 25 µM (≈ 72 µg/mL), the MIC [5] was 6 µM (≈ 17.3 µg/mL) and the MIC [26] was 12.5 µM (≈ 36 µg/mL). The MIC [27] was 25 µM (≈ 72 µg/mL), the MIC [28] was 25 µM (≈ 72 µg/mL) and the MIC [23] was 6 µM (≈ 17.3 µg/mL).

`CC[C@H](C)[C@H](NC(=O)[C@H](CCCCN)NC(=O)[C@@H](NC(=O)[C@H](Cc1c[nH]c2ccccc12)NC(=O)[C@H](CS)NC(=O)[C@H](CCCNC(=N)N)NC(=O)[C@@H]1CCCN1C(=O)[C@@H](N)CCCNC(=N)N)[C@@H](C)CC)C(=O)N[C@@H](CCCCN)C(=O)N[C@@H](Cc1ccccc1)C(=O)N[C@@H](CCCNC(=N)N)C(=O)N[C@@H](CS)C(=O)N[C@@H](CCCCN)C(=O)N[C@@H](CO)C(=O)N[C@@H](CC(C)C)C(=O)N[C@@H](CCCCN)C(=O)N[C@@H](Cc1ccccc1)C(=O)O` [RPRCWIKIKFRCKSLKF] showed an MIC [29] of 17 µM (≈ 37.5 µg/mL), an MIC [30] of 17 µM (≈ 37.5 µg/mL) and an MIC [5] of 8.48 µM (≈ 18.8 µg/mL). The MIC [31] was 8.48 µM (≈ 18.8 µg/mL), the MIC [32] was 24 µM (≈ 53 µg/mL) and the MIC [16] was 17 µM (≈ 37.5 µg/mL). The MIC [33] was ≥ 45.3 µM, the MIC [34] was 4.24 µM (≈ 9.38 µg/mL) and the MIC [35] was 4.24 µM (≈ 9.38 µg/mL). It also gave an MIC [23] of 4.24 µM (≈ 9.38 µg/mL).

In the case of `CC[C@H](C)[C@H](NC(=O)[C@H](Cc1ccccc1)NC(=O)[C@@H](NC(=O)[C@@H](N)CCCCN)C(C)C)C(=O)N[C@@H](C)C(=O)N[C@H](C(=O)N[C@@H](CC(C)C)C(=O)N[C@H](C(=O)N[C@H](C(=O)N[C@@H](CO)C(=O)N[C@@H](CO)C(=O)N[C@@H](Cc1ccccc1)C(=O)N[C@@H](CC(C)C)C(=O)N[C@@H](CC(C)C)C(=O)N[C@@H](C)C(=O)N[C@@H](CCCCN)C(=O)N1CCC[C@H]1C(=O)N1CCC[C@H]1C(=O)N[C@@H](CCCN=C(N)N)C(=O)N[C@H](C(=O)O)C(C)C)C(C)C)C(C)C)[C@@H](C)O` [KVFIATLVVSSFLLAKPPRV], the MIC [36] is reported as ≥ 117 µM, the MIC [32] is reported as > 117 µM and the MIC [37] is reported as > 117 µM. For the same compound, the MIC [38] was ≥ 117 µM.

With `CC[C@H](C)[C@H](NC(=O)[C@H](C)NC(=O)CNC(=O)[C@@H]1CCCN1C(=O)[C@@H](NC(=O)[C@H](CC(C)C)NC(=O)CNC(=O)[C@H](Cc1c[nH]c2ccccc12)NC(=O)[C@H](CC(C)C)NC(=O)[C@@H](N)Cc1ccccc1)[C@@H](C)CC)C(=O)N[C@@H](CO)C(=O)N[C@@H](C)C(=O)N[C@H](C(=O)N[C@H](C(=O)N[C@@H](CO)C(=O)N[C@@H](CC(C)C)C(=O)N[C@H](C(=O)N[C@@H](CCCCN)C(=O)N[C@@H](CCCCN)C(N)=O)[C@@H](C)CC)[C@@H](C)O)C(C)C` [FLWGLIPGAISAVTSLIKK] the MIC [39] was ≥ 49.6 µM, the MIC [2] was 7.94 µM (≈ 16 µg/mL) and the MIC [40] was 4.96 µM (≈ 10 µg/mL). For the same compound, the MIC [41] was ≥ 49.6 µM, the MIC [42] was 2.48 µM (≈ 5 µg/mL) and the MIC [43] was 4.96 µM (≈ 10 µg/mL). For the same compound, the MIC [5] was > 31.8 µM, the MIC [44] was 4.96 µM (≈ 10 µg/mL) and the MIC [45] was 31.8 µM (≈ 64 µg/mL). The MIC [46] was 2.48 µM (≈ 5 µg/mL), the MIC [47] was 31.8 µM (≈ 64 µg/mL) and the MIC [48] was 9.93 µM (≈ 20 µg/mL). For the same compound, the MIC [27] was > 31.8 µM, the MIC [49] was 14.4 µM (≈ 29.1 µg/mL) and the MIC [50] was 9.93 µM and 7.94 µM. For the same compound, the MIC [16] was 31.8 µM (≈ 64 µg/mL), the MIC [51] was 4.96 µM (≈ 10 µg/mL) and the MIC [23] was 15.9 µM (≈ 32 µg/mL). For the same compound, the MIC [52] was 4.96 µM (≈ 10 µg/mL) and the MIC [53] was 4.96 µM (≈ 10 µg/mL).
